According to patent US12331018B2, “Pyrrolidine orexin receptor agonists” (Merck Sharp & Dohme LLC, priority 2019, dated 2025):
Read-outs that look alike come from different tables or passages of the source.

Molecular target: T1, human OX2R (Homo sapiens, UniProt O43614)
T1 construct: expressed in transfected cells; host or cells: CHO (Chinese hamster ovary) cells, grown under G418 selection
T1 sequence (O43614 1-444): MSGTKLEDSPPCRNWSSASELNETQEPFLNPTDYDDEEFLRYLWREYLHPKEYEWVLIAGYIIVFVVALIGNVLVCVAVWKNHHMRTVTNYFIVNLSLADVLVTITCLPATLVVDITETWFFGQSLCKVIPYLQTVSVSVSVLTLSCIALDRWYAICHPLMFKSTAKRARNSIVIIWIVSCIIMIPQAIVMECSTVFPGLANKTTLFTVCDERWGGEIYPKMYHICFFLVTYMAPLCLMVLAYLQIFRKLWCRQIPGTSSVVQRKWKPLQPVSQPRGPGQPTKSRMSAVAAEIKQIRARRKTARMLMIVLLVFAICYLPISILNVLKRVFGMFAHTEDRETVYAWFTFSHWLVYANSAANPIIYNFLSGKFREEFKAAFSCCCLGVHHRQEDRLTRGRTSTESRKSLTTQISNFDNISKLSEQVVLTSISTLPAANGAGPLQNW
Assay: IPOne (IP-1 accumulation) assay in CHO cells expressing human OX2R
Format: cell-based
Conditions: for Emax, % of reference agonist: OX2R, percentage of sample raw value/mean max effect (reference compound at 1 uM with 100% activity)
Excerpt: The utility of the compounds in accordance with the present invention as orexin receptor OX1R and/or OX2R agonists may be readily determined without undue experimentation by methodology well known in the art. Both the OX1R and/or OX2R G-coupled protein receptors (GPCRs) couple through the Gaq signaling pathway, which ultimately promotes calcium mobilization via inositol triphosphate (IP3) production. The half-life of IP-3 is relatively short, being rapidly metabolized to inositol monophosphate (IP-1), which can be readily detected using a commercially available assay kit (IP-One; Cisbio; cat #621PAPEC) coupled with a cell line expressing the target receptor(s) of interest. The utility of the compounds in accordance with the present invention as orexin receptor OX1R and/or OX2R agonists may be determined utilizing this assay.
In a typical experiment, the OX1 and OX2 receptor agonist activity is determined in accordance with the following general experimental method. Chinese hamster ovary (CHO) cells expressing human OX1R and/or the human OX2R were grown in Iscove's modified DMEM containing glutaMAX™, 1% G418, 100 U/mL penicillin, 100 μg/mL streptomycin and 10% heat-inactivated qualified fetal bovine serum (FBS). The OX2R cells were seeded at 10,000 cells/well/50 μL and the OX1R cells were seeded at 20,000 cells/well/50 μL into 384-well white tissue culture plates (Greiner; cat #781080). All cell/media reagents were from GIBCO-Invitrogen Corp. The seeded cell plate(s) were incubated at 37° C. with 5% CO2 and 85% humidity for 20-24 hours. On the day of the assay, assay-ready compound plates were prepared using an acoustic liquid handler (ECHO; Labcyte), which dispensed sufficient volume of test compound stock (10 mM in DMSO) or 100% DMSO to prepare 10 point, ½-log dilutions in a final volume of 202.5 nL/well in all test wells of a 384-well diamond plate (Labcyte). Following completion of assay-ready plates, importantly, the next three steps were performed with minimal delay: 1) 20 μl of 1× stimulation buffer was added to the compound plate using a Multidrop Combi (small cassette, Thermo Fisher Scientific cat #24073290); 2) culture medium was removed from the cell plate using the Bluewasher plate washer (gentle spin; BlueCatBio); 3) 14 μl of compound/stimulation buffer mixture was added to the cell plate using a Bravo liquid handler (Agilent) prior to incubating cell plates at 37° C. with 5% CO2 and 85% humidity for 1 or 2 hours (OX1R and OX2R, respectively). During this incubation, IP-one detection reagents were prepared (38:1:1 lysis buffer:D2:AB-cryptate reagents). Six μL of mixed detection reagents were added to the cell plate using a Multidrop Combi (small cassette, Thermo Fisher Scientific cat #24073290) and incubated 60 minutes at room temperature in the dark. Fluorescence signal was detected using an Envision plate reader (Perkin Elmer) [LANCE/DELFIA Dual Enh (Em: APC 665; Ex: Cy5 620)].
For each compound, data were fit to a four parameter logistic fit (ActivityBase software) and the EC50 was reported as the inflection point of the resulting curve. Percent effect for each test compound was determined as the percentage of sample raw value/mean max effect, where the mean max effect was derived from the mean raw value of 32 control wells per assay plate (using Orexin A (cat #003-30) at 1 μM for human OX1R and a reference compound at 1 uM with 100% activity previously established by comparison to Orexin A for human OX2R). The intrinsic orexin receptor agonist activity of a compound which may be used in the present invention may be determined by these assays.

[1] = CHO cells expressing human OX2R, IP-One assay, 2 hours incubation, four parameter logistic fit, read-out: OX2R Potency, EC50

| Structure (SMILES) | Emax, % of reference agonist [%] | EC50 [1] [nM] | EC50 [nM] |
| --- | --- | --- | --- |
| CCNC(=O)N1CC[C@H](NS(C)(=O)=O)[C@@H]1CO[C@H]1CC[C@@H](c2ccccc2)CC1 (relative stereo) [Example 1, (CIS)-N-ethyl-3-(methylsulfonamido)-2-((((CIS)-4-phenylcyclohexyl)oxy)methyl)pyrrolidine-1-carboxamide] | 99.6 | – | 12 |
| COC(=O)N1CC[C@H](NS(C)(=O)=O)[C@@H]1CO[C@H]1CC[C@@H](c2ccccc2)CC1 (relative stereo) [Example 2, methyl (CIS)-3-(methylsulfonamido)-2-((((CIS)-4-phenylcyclohexyl)oxy)-methyl)pyrrolidine-1-carboxylate] | 96.4 | 328 | – |
| CC(=O)N1CC[C@H](NS(C)(=O)=O)[C@@H]1CO[C@H]1CC[C@@H](c2ccccc2)CC1 (relative stereo) [Example 3, N-((CIS)-1-acetyl-2-((((CIS)-4-phenylcyclohexyl)oxy)methyl)pyrrolidin-3-yl)methanesulfonamide] | 101.3 | 272 | – |
| CCOC(=O)N1CC[C@@H](NS(C)(=O)=O)[C@H]1CO[C@H]1CC[C@@H](c2ccccc2)CC1 (relative stereo) [Example 4, ethyl (CIS)-3-(methylsulfonamido)-2-((((CIS)-4-phenylcyclohexyl)oxy)methyl) pyrrolidine-1-carboxylate] | 98.9 | 252 | – |
| CC(C)OC(=O)N1CC[C@@H](NS(C)(=O)=O)[C@H]1CO[C@H]1CC[C@@H](c2ccccc2)CC1 (relative stereo) [Example 5, isopropyl (CIS)-3-(methylsulfonamido)-2-((((CIS)-4-phenylcyclohexyl)oxy)methyl) pyrrolidine-1-carboxylate] | 92.8 | 2630 | – |
| CS(=O)(=O)N[C@@H]1CCN(C(=O)OCCF)[C@@H]1CO[C@H]1CC[C@@H](c2ccccc2)CC1 (relative stereo) [Example 6, 2-fluoroethyl (CIS)-3-(methylsulfonamido)-2-((((CIS)-4-phenylcyclohexyl)oxy)methyl) pyrrolidine-1-carboxylate] | 98.4 | 216 | – |
| CC(=O)OCC(=O)N1CC[C@H](NS(C)(=O)=O)[C@@H]1CO[C@H]1CC[C@@H](c2ccccc2)CC1 (relative stereo) [Example 7, 2-((CIS)-3-(methylsulfonamido)-2-((((CIS)-4-phenylcyclohexyl)oxy)methyl)pyrrolidin-1-yl)-2-oxoethyl acetate] | 98.8 | 361 | – |
| CS(=O)(=O)N[C@H]1CCN(C(=O)C2CC2)[C@H]1CO[C@H]1CC[C@@H](c2ccccc2)CC1 (relative stereo) [Example 8, N-((CIS)-1-(cyclopropanecarbonyl)-2-((((CIS)-4-phenylcyclohexyl)oxy)methyl)pyrrolidin-3-yl) methanesulfonamide] | 101.6 | 77.9 | – |

More lines, main results first:

| Emax, % of reference agonist [%] | EC50 [1] [nM] | Structure (SMILES) | EC50 [nM] |
| --- | --- | --- | --- |
| 99.2 | 36.4 | CC(C)NC(=O)N1CC[C@@H](NS(C)(=O)=O)[C@H]1CO[C@H]1CC[C@@H](c2ccccc2)CC1 (relative stereo) [Example 9, (CIS)-N-isopropyl-3-(methylsulfonamido)-2-((((CIS)-4-phenylcyclohexyl)oxy)methyl) pyrrolidine-1-carboxamide] | – |
| 103.7 | 3.65 | CS(=O)(=O)N[C@H]1CCN(C(=O)NCC(F)(F)F)[C@H]1CO[C@H]1CC[C@@H](c2ccccc2)CC1 (relative stereo) [Example 10, (CIS)-3-(methylsulfonamido)-2-((((CIS)-4-phenylcyclohexyl)oxy)methyl)-N-(2,2,2-trifluoroethyl)pyrrolidine-1-carboxamide] | – |
| 99.9 | 136 | CCS(=O)(=O)N[C@H]1CCN(C(=O)OC)[C@H]1CO[C@H]1CC[C@@H](c2ccccc2)CC1 (relative stereo) [Example 13, methyl (CIS)-3-(ethylsulfonamido)-2-((((CIS)-4-phenylcyclohexyl)oxy)methyl)pyrrolidine-1-carboxylate] | – |
| 101.3 | 372 | COC(=O)N1CC[C@@H](NS(=O)(=O)C(C)C)[C@H]1CO[C@H]1CC[C@@H](c2ccccc2)CC1 (relative stereo) [Example 14, methyl (CIS)-3-((1-methylethyl)sulfonamido)-2-((((CIS)-4-phenylcyclohexyl)oxy)methyl) pyrrolidine-1-carboxylate] | – |
| 99.8 | 299 | COC(=O)N1CC[C@@H](NS(=O)(=O)C2CC2)[C@H]1CO[C@H]1CC[C@@H](c2ccccc2)CC1 (relative stereo) [Example 15, methyl (CIS)-3-(cyclopropanesulfonamido)-2-((((CIS)-4-phenylcyclohexyl)oxy)methyl) pyrrolidine-1-carboxylate] | – |
| 100.7 | 177 | COC(=O)N1CC[C@@H](NS(=O)(=O)CF)[C@H]1CO[C@H]1CC[C@@H](c2ccccc2)CC1 (relative stereo) [Example 16, methyl (CIS)-3-((fluoromethyl)sulfonamido)-2-((((CIS)-4-phenylcyclohexyl)oxy)methyl) pyrrolidine-1-carboxylate] | – |
| 82.3 | 3700 | COC(=O)N1CC[C@H](NS(=O)(=O)c2ccccc2)[C@@H]1CO[C@H]1CC[C@@H](c2ccccc2)CC1 (relative stereo) [Example 17, methyl (CIS)-2-((((CIS)-4-phenylcyclohexyl)oxy)methyl)-3-(phenylsulfonamido)pyrrolidine-1-carboxylate] | – |
| 98.5 | 66.5 | CNS(=O)(=O)N[C@@H]1CCN(C(=O)OC)[C@@H]1CO[C@H]1CC[C@@H](c2ccccc2)CC1 (relative stereo) [Example 18, methyl (CIS)-3-((N-methylsulfamoyl)amino)-2-((((CIS)-4-phenylcyclohexyl)oxy)methyl) pyrrolidine-1-carboxylate] | – |
| 98.8 | 39.4 | COC(=O)N1CC[C@@H](NS(=O)(=O)N(C)C)[C@H]1CO[C@H]1CC[C@@H](c2ccccc2)CC1 (relative stereo) [Example 19, methyl (CIS)-3-((N,N-dimethylsulfamoyl)amino)-2-((((CIS)-4-phenylcyclohexyl)oxy)methyl) pyrrolidine-1-carboxylate] | – |
| 96.4 | 1010 | CS(=O)(=O)N[C@H]1CCN(C(=O)CC(F)(F)F)[C@H]1CO[C@H]1CC[C@@H](c2ccccc2)CC1 (relative stereo) [Example 20, N-((CIS)-2-((((CIS)-4-phenylcyclohexyl)oxy)methyl)-1-(3,3,3-trifluoropropanoyl)pyrrolidin-3-yl)methanesulfonamide] | – |
